Patent US12139520B2 (priority 2020, dated 2024)
Bridge positions count the residues as written; N and C are the ends. Square brackets hold non-standard residues; d marks the D form. Peptide text beside a SMILES is read from it. Hyp = O=C(O)[C@@H]1C[C@@H](O)CN1; Cit = NC(=O)NCCC[C@H](N)C(=O)O

Experiments:
[1] = Physical stability of peptide analogues (Thioflavin T fibrillation); format: physicochemical; conditions: maximum ThT signal normalized between hAMY maximum and buffer background; 40° C., shaking, four days; pH 7 per table title
Method in brief: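 Samples are stressed at 40 °C for four days, being shaken at 700 rpm before each 10-min fluorescence reading of 4 μM Thioflavin T. Buffers were pH 4 acetate or pH 7 phosphate. Reported values are smoothed maximum ThT signals as a percentage of the hAMY-to-background range.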

hAMY3 receptor = target: T1, hAMY3 receptor (Homo sapiens, UniProt O60896+P30988); test: cAMP assay for in vitro receptor activation, hAMY3-R; format: cell-based; conditions: cAMP assay, hAMY3 receptor; read-out: hAMY3R EC50
T1 sequence (P30988 25-474): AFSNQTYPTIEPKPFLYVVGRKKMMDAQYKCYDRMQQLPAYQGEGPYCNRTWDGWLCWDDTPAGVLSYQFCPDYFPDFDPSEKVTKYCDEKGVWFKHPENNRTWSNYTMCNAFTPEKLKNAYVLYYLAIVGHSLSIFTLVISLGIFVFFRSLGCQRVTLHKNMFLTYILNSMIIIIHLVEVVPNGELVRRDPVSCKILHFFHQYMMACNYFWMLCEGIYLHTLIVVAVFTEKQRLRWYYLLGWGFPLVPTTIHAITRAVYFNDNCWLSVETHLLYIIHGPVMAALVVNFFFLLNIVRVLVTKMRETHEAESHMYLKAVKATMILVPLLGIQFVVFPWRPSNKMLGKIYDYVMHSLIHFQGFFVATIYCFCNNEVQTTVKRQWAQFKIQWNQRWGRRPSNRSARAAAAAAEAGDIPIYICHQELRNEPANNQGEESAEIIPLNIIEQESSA
T1 sequence (O60896 24-148 partner): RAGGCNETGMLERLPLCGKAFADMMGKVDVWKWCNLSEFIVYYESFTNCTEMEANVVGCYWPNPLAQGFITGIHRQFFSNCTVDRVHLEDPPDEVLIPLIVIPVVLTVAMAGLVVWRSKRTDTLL
Method in brief: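 Accumulated cAMP was detected by time-resolved FRET one hour after reagent addition. Beforehand, hAMY3-R-overexpressing monoclonal cells (2000/well, DPBS, 0.05% casein, 0.5 mM IBMX) received graded doses of compound for 30 min at room temperature; human amylin served as positive control.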

CC[C@H](C)[C@H](NC(=O)[C@H](CC(N)=O)NC(=O)[C@H](CO)NC(=O)[C@H](CCCNC(=N)N)NC(=O)[C@@H]1CCCN1C(=O)[C@H](C)NC(=O)[C@@H](NC(=O)[C@H](CC(N)=O)NC(=O)[C@H](CC(=O)O)NC(=O)[C@H](CCCCN)NC(=O)[C@H](CC(=O)O)NC(=O)[C@H](CCCCN)NC(=O)[C@H](CC(=O)O)NC(=O)[C@@H](NC(=O)[C@H](Cc1ccccc1)NC(=O)[C@H](CCC(N)=O)NC(=O)[C@H](Cc1ccc(O)cc1)NC(=O)[C@@H](NC(=O)[C@H](CCC(N)=O)NC(=O)[C@H](Cc1c[nH]cn1)NC(=O)[C@H](C)NC(=O)[C@H](CC(C)C)NC(=O)[C@H](Cc1c[nH]c2ccccc12)NC(=O)[C@H](CCC(N)=O)NC(=O)[C@@H](NC(=O)[C@@H](NC(=O)[C@@H]1CSSC[C@H](NC(=O)CN)C(=O)N[C@@H](CCCNC(=N)N)C(=O)N[C@@H]([C@@H](C)O)C(=O)NCC(=O)N[C@@H]([C@@H](C)O)C(=O)N1)[C@@H](C)O)C(C)C)[C@@H](C)CC)[C@@H](C)O)C(C)C)C(=O)NCC(=O)N1CCC[C@H]1C(=O)N[C@@H](CC(N)=O)C(=O)NCC(=O)N1C[C@H](O)C[C@H]1C(N)=O [compound 352] (H-GCRTGTCTVQWLAHQIYQFTDKDKDNVAPRSNIGPNG[Hyp]-NH2; disulfide 2-7; N-terminus assumed)
Max ThT signal (%) [1]: 25.800% | EC50 (hAMY3 receptor): 0.04 nM

CC[C@H](C)[C@H](NC(=O)[C@H](CCCCN)NC(=O)[C@@H](NC(=O)[C@H](CCCNC(=N)N)NC(=O)[C@@H]1CCCN1C(=O)[C@H](C)NC(=O)[C@@H](NC(=O)[C@H](CC(N)=O)NC(=O)[C@H](CC(=O)O)NC(=O)[C@H](CCCCN)NC(=O)[C@H](CC(=O)O)NC(=O)[C@H](CCCCN)NC(=O)[C@H](CC(=O)O)NC(=O)[C@@H](NC(=O)[C@H](Cc1ccccc1)NC(=O)[C@H](CCC(N)=O)NC(=O)[C@H](Cc1ccc(O)cc1)NC(=O)[C@@H](NC(=O)[C@H](CCC(N)=O)NC(=O)[C@H](Cc1c[nH]cn1)NC(=O)[C@H](C)NC(=O)[C@H](CC(C)C)NC(=O)[C@H](CCCNC(=N)N)NC(=O)[C@H](CCC(N)=O)NC(=O)[C@@H](NC(=O)[C@@H](NC(=O)[C@@H]1CSSC[C@H](NC(=O)CN)C(=O)N[C@@H](CCCNC(=N)N)C(=O)N[C@@H](Cc2ccccc2)C(=O)NCC(=O)N[C@@H]([C@@H](C)O)C(=O)N1)[C@@H](C)O)C(C)C)[C@@H](C)CC)[C@@H](C)O)C(C)C)[C@@H](C)O)C(=O)NCC(=O)N1CCC[C@H]1C(=O)N[C@@H](CCC(N)=O)C(=O)NCC(=O)N[C@@H](Cc1ccc(O)cc1)C(N)=O [compound 391] (H-GCRFGTCTVQRLAHQIYQFTDKDKDNVAPRTKIGPQGY-NH2; disulfide 2-7; N-terminus assumed)
Max ThT signal (%) [1]: 3.700% | EC50 (hAMY3 receptor): 0.068 nM

CC[C@H](C)[C@H](NC(=O)[C@H](CCC(N)=O)NC(=O)[C@H](Cc1c[nH]cn1)NC(=O)[C@H](C)NC(=O)[C@H](CC(C)C)NC(=O)[C@H](CCCNC(N)=O)NC(=O)[C@H](CCC(N)=O)NC(=O)[C@@H](NC(=O)[C@@H](NC(=O)[C@@H]1CSSC[C@H](NC(=O)CN)C(=O)N[C@@H](CCCNC(=N)N)C(=O)N[C@@H](Cc2ccccc2)C(=O)NCC(=O)N[C@@H]([C@@H](C)O)C(=O)N1)[C@@H](C)O)C(C)C)C(=O)N[C@@H](Cc1ccc(O)cc1)C(=O)N[C@@H](CCC(N)=O)C(=O)N[C@@H](Cc1ccccc1)C(=O)N[C@H](C(=O)N[C@@H](CC(=O)O)C(=O)N[C@@H](CCCCN)C(=O)N[C@@H](CC(=O)O)C(=O)N[C@@H](CCCCN)C(=O)N[C@@H](CC(=O)O)C(=O)N[C@@H](CC(N)=O)C(=O)N[C@H](C(=O)N[C@@H](C)C(=O)N1CCC[C@H]1C(=O)N[C@@H](CCCNC(=N)N)C(=O)N[C@H](C(=O)N[C@@H](CC(N)=O)C(=O)N[C@H](C(=O)N[C@@H](CO)C(=O)N1CCC[C@H]1C(=O)N[C@@H](CC(N)=O)C(=O)NCC(=O)N[C@@H](Cc1ccc(O)cc1)C(N)=O)C(C)C)[C@@H](C)O)C(C)C)[C@@H](C)O [compound 271] (H-GCRFGTCTVQ[Cit]LAHQIYQFTDKDKDNVAPRTNVSPNGY-NH2; disulfide 2-7; N-terminus assumed)
Max ThT signal (%) [1]: 10.850% | EC50 (hAMY3 receptor): 0.01 nM

CC[C@H](C)[C@H](NC(=O)[C@H](CCC(N)=O)NC(=O)[C@H](Cc1c[nH]cn1)NC(=O)[C@H](C)NC(=O)[C@H](CC(C)C)NC(=O)[C@H](CCCNC(=N)N)NC(=O)[C@H](CCC(N)=O)NC(=O)[C@@H](NC(=O)[C@@H](NC(=O)[C@@H]1CSSC[C@H](NC(=O)CN)C(=O)N[C@@H](CCCNC(=N)N)C(=O)N[C@@H](Cc2ccccc2)C(=O)NCC(=O)N[C@@H]([C@@H](C)O)C(=O)N1)[C@@H](C)O)C(C)C)C(=O)N[C@@H](Cc1ccc(O)cc1)C(=O)N[C@@H](CCC(N)=O)C(=O)N[C@@H](Cc1ccccc1)C(=O)N[C@H](C(=O)N[C@@H](CC(=O)O)C(=O)N[C@@H](CCCCN)C(=O)N[C@@H](CC(=O)O)C(=O)N[C@@H](CCCCN)C(=O)N[C@@H](CC(=O)O)C(=O)N[C@@H](CC(N)=O)C(=O)N[C@H](C(=O)N[C@@H](C)C(=O)N1CCC[C@H]1C(=O)N[C@@H](CCCNC(=N)N)C(=O)N[C@H](C(=O)N[C@@H](CCCCN)C(=O)N[C@H](C(=O)N[C@@H](CO)C(=O)N1CCC[C@H]1C(=O)N[C@@H](CCC(N)=O)C(=O)NCC(=O)N[C@@H](Cc1ccc(O)cc1)C(N)=O)[C@@H](C)CC)[C@@H](C)O)C(C)C)[C@@H](C)O [compound 164] (H-GCRFGTCTVQRLAHQIYQFTDKDKDNVAPRTKISPQGY-NH2; disulfide 2-7)
Max ThT signal (%) [1]: 24.300% | EC50 (hAMY3 receptor): 0.054 nM

CC[C@H](C)[C@H](NC(=O)[C@H](CCC(N)=O)NC(=O)[C@H](Cc1c[nH]cn1)NC(=O)[C@H](C)NC(=O)[C@H](CC(C)C)NC(=O)[C@H](CCCNC(=N)N)NC(=O)[C@H](CCC(N)=O)NC(=O)[C@@H](NC(=O)[C@@H](NC(=O)[C@@H]1CSSC[C@H](NC(=O)CN)C(=O)N[C@@H](CCCNC(=N)N)C(=O)N[C@@H](Cc2ccccc2)C(=O)NCC(=O)N[C@@H]([C@@H](C)O)C(=O)N1)[C@@H](C)O)C(C)C)C(=O)N[C@@H](Cc1ccc(O)cc1)C(=O)N[C@@H](CCC(N)=O)C(=O)N[C@@H](Cc1ccccc1)C(=O)N[C@H](C(=O)N[C@@H](CC(=O)O)C(=O)N[C@@H](CCCCN)C(=O)N[C@@H](CC(=O)O)C(=O)N[C@@H](CCCCN)C(=O)N[C@@H](CC(=O)O)C(=O)N[C@@H](CC(N)=O)C(=O)N[C@H](C(=O)N[C@@H](C)C(=O)N1CCC[C@H]1C(=O)N[C@@H](CCCNC(=N)N)C(=O)N[C@H](C(=O)N[C@@H](CC(N)=O)C(=O)N[C@H](C(=O)N[C@@H](CO)C(=O)N1CCC[C@H]1C(=O)N[C@@H](CCC(N)=O)C(=O)NCC(=O)N[C@@H](Cc1ccc(O)cc1)C(N)=O)[C@@H](C)CC)[C@@H](C)O)C(C)C)[C@@H](C)O [compound 140] (H-GCRFGTCTVQRLAHQIYQFTDKDKDNVAPRTNISPQGY-NH2; disulfide 2-7; N-terminus assumed)
Max ThT signal (%) [1]: 3.100% | EC50 (hAMY3 receptor): 0.036 nM

CC[C@H](C)[C@H](NC(=O)[C@H](CCC(N)=O)NC(=O)[C@H](Cc1c[nH]cn1)NC(=O)[C@H](C)NC(=O)[C@H](CC(C)C)NC(=O)[C@H](Cc1c[nH]c2ccccc12)NC(=O)[C@H](CCC(N)=O)NC(=O)[C@@H](NC(=O)[C@@H](NC(=O)[C@@H]1CSSC[C@H](NC(=O)CN)C(=O)N[C@@H](CCCNC(=N)N)C(=O)N[C@@H](Cc2ccccc2)C(=O)NCC(=O)N[C@@H]([C@@H](C)O)C(=O)N1)[C@@H](C)O)C(C)C)C(=O)N[C@@H](Cc1ccc(O)cc1)C(=O)N[C@@H](CCC(N)=O)C(=O)N[C@@H](Cc1ccccc1)C(=O)N[C@H](C(=O)N[C@@H](CC(=O)O)C(=O)N[C@@H](CCCCN)C(=O)N[C@@H](CC(=O)O)C(=O)N[C@@H](CCCCN)C(=O)N[C@@H](CC(=O)O)C(=O)N[C@@H](CC(N)=O)C(=O)N[C@H](C(=O)N[C@@H](C)C(=O)N1CCC[C@H]1C(=O)N[C@@H](CCCNC(=N)N)C(=O)N[C@@H](CO)C(=O)N[C@@H](CC(N)=O)C(=O)N[C@H](C(=O)N[C@@H](CO)C(=O)N1CCC[C@H]1C(=O)N[C@@H](CCC(N)=O)C(=O)NCC(=O)N[C@@H](Cc1ccc(O)cc1)C(N)=O)C(C)C)C(C)C)[C@@H](C)O [compound 345] (H-GCRFGTCTVQWLAHQIYQFTDKDKDNVAPRSNVSPQGY-NH2; disulfide 2-7; N-terminus assumed)
Max ThT signal (%) [1]: 3.250% | EC50 (hAMY3 receptor): 0.051 nM
